The values that follow come from patent US20120027842A1, “TOPICAL FORMULATIONS OF FLAP INHIBITORS FOR ADMINISTRATION TO AN EYE” (Amira Pharmaceuticals, Inc., priority 2008, published 2012).

Series [1] in a line: Solubility in 10% beta-hydroxypropyl cyclodextrin (BHPC) in water. Conditions: Na salt; at 1 mg/mL. It counts as physicochemical. How it is done:
In one aspect, aqueous ophthalmic solutions that include a FLAP inhibitor compounds were prepared by dissolving a FLAP inhibitor compound in 10% beta-hydroxypropyl cyclodextrin (BHPC) in water. Using this formulation, the following compounds were soluble at 1 mg/mL: Compound A (Na salt), Compound B (Na salt), Compound C (Na salt), Compound I (Na salt), Compound J (Na salt), Compound G (Na salt).

Details of series [2]: species or system BALB/c mice. Conditions: mouse, in vivo, 10 mg/kg.
Series [3] relates to CysLTs. Kind of series: Mouse model of RSV-infected eye: CysLT measurements in eye homogenates (EIA). Conditions: topical treatment of RSV-infected mouse eyes, 60 ng/2 μL daily. Type of series: in vivo, BALB/c mice. As to the method: (§1) A mouse model of respiratory syncytial virus (RSV) eye infection is used to test the effects of ocular application of a FLAP inhibitor compound on RSV-induced ocular immunopathology (Bitko V, et al., J. Virol. 2007; 81(2):783-90; Bitko V, et al., Nat. Med. 2005; 11(1):50-5). Each mouse eye is topically treated with 60 ng of FLAP inhibitor compound or vehicle (sterile saline) in a volume of 2 μl. The FLAP inhibitor compound is instilled 40 min after virus inoculum and then once daily over the entire duration of the protocol (14 days).
(§2) Instillation of virus and inhibitor in the eye. Female BALB/c mice, 6 to 8 weeks old, were purchased from Charles River Laboratories. RSV (Long strain, serotype A) was grown on HEp-2 cells and purified on sucrose layers to a concentration of 10^11 PFU (Bitko et al., Nat. Med. 11:50-55, 2005). Dilutions were done in phosphate-buffered saline (PBS) immediately before use to a final concentration of 10^4 PFU/2 μL as needed. A similarly diluted sucrose solution was used in sham-infected control mice. Mice were anesthetized by intraperitoneal injection of pentobarbital (50 mg/kg), and virus in 2 μL PBS was dropped into the corneal surface and massaged in with closed eyelids. The day of the inoculation was considered day 0. […]

For series [4], the system named is RSV (Long strain, serotype A). As to the kind of experiment: Mouse model of RSV-infected eye: ocular pathology. It counts as in vivo, BALB/c mice. As to the method: as §1
Instillation of virus and inhibitor in the eye. Female BALB/c mice, 6 to 8 weeks old, were purchased from Charles River Laboratories. RSV (Long strain, serotype A) was grown on HEp-2 cells and purified on sucrose layers to a concentration of 10^11 PFU (Bitko et al., Nat. Med. 11:50-55, 2005). […]
Ocular pathology. Ocular disease was evaluated with a slit lamp biomicroscope as described previously (Bitko V, et al., J. Virol. 2007; 81(2):783-90) 15; Girgis et al., Invest. […] Pathology was scored on a scale of 0 to 5 as follows: 0=clear eye; 1=slight redness in the corners; 2=moderate redness and injection; 3=conjunctival and corneal injection with ciliary flush; 4=extensive injection, generally associated with some mucus; 5=most extensive injection, associated with mucus. Eyes were examined in a coded fashion with the reader unaware of the treatment given. […]

The subject of series [5] is IL-4. Kind of series: Mouse model of RSV-infected eye: Interleukin-4 (IL-4) measurements in eye homogenates. Conditions: topical treatment of RSV-infected mouse eyes, 60 ng/2 μL daily. Type of series: in vivo, BALB/c mice. How it is done:
as §1, §2

Series [6] has as its system RSV. As to the kind of experiment: Mouse model of RSV-infected eye: RSV viral load, RNA and protein in eye and lung. Type of series: in vivo, BALB/c mice. Conditions: ocular application to RSV-infected mice. As to the method:
as §1
Instillation of virus and inhibitor in the eye. Female BALB/c mice, 6 to 8 weeks old, were purchased from Charles River Laboratories. RSV (Long strain, serotype A) was grown on HEp-2 cells and purified on sucrose layers to a concentration of 10^11 PFU (Bitko et al., Nat. Med. 11:50-55, 2005). Dilutions were done in phosphate-buffered saline (PBS) immediately before use to a final concentration of 10^4 PFU/2 μL as needed. A similarly diluted sucrose solution was used in sham-infected control mice. Mice were anesthetized by intraperitoneal injection of pentobarbital (50 mg/kg), and virus in 2 μL PBS was dropped into the corneal surface and massaged in with closed eyelids. The day of the inoculation was considered day 0. The FLAP inhibitor Compound C was diluted in PBS to 60 ng/2 μL just prior to application of 2 μL 40 minutes after the RSV inoculation on day 0 and then each day.
RSV RNA and protein: RSV is assayed in the ocular tissue on various days using both Western blot and viable virus assay (plaque forming unit; pfu) as described before. […] is quantified by RT-PCR. RSV RNA and protein were measured in the eye and lung (Urnowey et al., BMC Microbiol. 6:26, 2006).
Compound C reduced RSV in the lung.
Infection of an eye eventually transmits into the lung, causing a standard respiratory infection. […] Thus, it is of interest to monitor the lung infection to determine if the ocular application of the FLAP inhibitor compound has any effect on virus replication and quantity of virus in the lung. […]

For the compound `CC(C)(C)Sc1c(CC(C)(C)C(=O)O)n(Cc2ccc(-c3ccc(F)cn3)cc2)c2ccc(OCc3ccc4ccccc4n3)cc12` [Compound F, 3-[3-tert-Butylsulfanyl-1-[4-(5-fluoro-pyridin-2-yl)-benzyl]-5-(quinolin-2-ylmethoxy)-1H-indol-2-yl]-2,2-dimethyl-propionic acid], the “solubility in 10% beta-hydroxypropyl cyclodextrin (BHPC) in water” value in series [1] was “formed a cloudy solution”.
Same read-out and setting: to `CC(C)(C)Sc1c(CC(C)(C)C(=O)O)n(Cc2ccc(-c3ccc(F)cn3)cc2)c2ccc(OCc3ccccn3)cc12` [Compound J, 3-[3-tert-butylsulfanyl-1-[4-(5-fluoro-pyridin-2-yl)-benzyl]-5-(pyridin-2-ylmethoxy)-1H-indol-2-yl]-2,2-dimethyl-propionic acid] belongs “soluble”.
Regarding `CCN(Cc1cc(C(F)(F)F)ccc1-c1cncc(CC(=O)O)c1)C(=O)OCc1ccccc1` [DP2 receptor antagonist], the “Plasma concentration @ trough” value in series [2] was <10 nM.
For the compound `CCC(CC)(Cc1c(SC(C)(C)C)c2cc(OCc3ccc(C)cn3)ccc2n1Cc1ccc(-c2ncc(OC)cn2)cc1)C(=O)O` [Compound G, 2-[3-tert-Butylsulfanyl-1-[4-(5-methoxy-pyrimidin-2-yl)-benzyl]-5-(5-methyl-pyridin-2-ylmethoxy)-1H-indol-2-ylmethyl]-2-ethyl-butyric acid], the “solubility in 10% beta-hydroxypropyl cyclodextrin (BHPC) in water” value in series [1] was “soluble”.
For the compound `COc1cnc(-c2ccc(Cn3c(CC(C)(C)C(=O)O)c(SC(C)(C)C)c4cc(OCc5cnc(C)cn5)ccc43)cc2)nc1` [Compound B, 3-[3-tert-Butylsulfanyl-1-[4-(5-methoxy-pyrimidin-2-yl)-benzyl]-5-(5-methyl-pyrazin-2-ylmethoxy)-1H-indol-2-yl]-2,2-dimethyl-propionic acid], the “solubility in 10% beta-hydroxypropyl cyclodextrin (BHPC) in water” value in series [1] is given as “soluble”.
In the case of `COc1cnc(-c2ccc(Cn3c(CC(C)(C)C(=O)O)c(SC(C)(C)C)c4cc(OC[C@@H]5Cc6ccccc6N5C(C)=O)ccc43)cc2)nc1` [Compound C, 3-{5-((S)-1-Acetyl-2,3-dihydro-1H-indol-2-ylmethoxy)-3-tert-butylsulfanyl-1-[4-(5-methoxy-pyrimidin-2-yl)-benzyl]-1H-indol-2-yl}-2,2-dimethyl-propionic acid], the “levels of CysLTs in eye homogenates” value in series [3] is on record as “reduced”. The “gummy residue and mucin build up in infected eyes” value in series [4] (ocular application 60 ng/2 μL per eye daily, day 8) was “clear of gummy residue and mucin build up”. Also, the “RSV eye pathology score (scale of 0 to 5)” value in series [4] (ocular application 60 ng/2 μL per eye, 40 min after RSV then daily, days 2-14 after RSV challenge) is given as “reduces the pathology score across all observation days”. For the same compound, the “solubility in 10% beta-hydroxypropyl cyclodextrin (BHPC) in water” value in series [1] was “soluble”. Moreover, the “levels of IL-4 in eye homogenates” value in series [5] is “reduced”. Besides, in series [6], the “RSV in the lung” value is “reduced”, the “RSV mRNA or protein in the eye or the lung” value is recorded as “did not increase” and the “viral load in the eye or the lung” value is recorded as “did not increase”.
With `CC(=O)N1CCC[C@H]1COc1ccc2c(c1)c(SC(C)(C)C)c(CC(C)(C)C(=O)O)n2Cc1ccc(Cl)cc1` [Compound I, 3-[5-((S)-1-Acetyl-pyrrolidin-2-ylmethoxy)-3-tert-butylsulfanyl-1-(4-chloro-benzyl)-1H-indol-2-yl]-2,2-dimethyl-propionic acid], the “solubility in 10% beta-hydroxypropyl cyclodextrin (BHPC) in water” value in series [1] is “soluble”.
On the same count and under the same terms, with `COc1cnc(-c2ccc(Cn3c(CC(C)(C)C(=O)O)c(SC(C)(C)C)c4cc(OCc5ccc(C)cn5)ccc43)cc2)nc1` [Compound A, 3-[3-tert-Butylsulfanyl-1-[4-(5-methoxy-pyrimidin-2-yl)-benzyl]-5-(5-methyl-pyridin-2-ylmethoxy)-1H-indol-2-yl]-2,2-dimethyl-propionic acid] the entry was “soluble”.
